Results from paper PMC5562305, “Impact of novel palmitoylated prolactin-releasing peptide analogs on metabolic changes in mice with diet-induced obesity” (PLoS ONE, 2017).
Starred links: 1 amine or outer side, 2 acyl side, 3 side chain; linkers in the order of their positions; H or OH if unused. Residues, ends and D or L forms follow the SMILES beside them. Groups on a side chain read outwards from the residue. *: point of attachment. TTDA(Palmitoyl) = CCCCCCCCCCCCCCCC(=O)NCCCOCCOCCOCCCN*; Suc = O=C(CCC(=O)[*:2])[*:1]

Tested on: urinary metabolites
Experiment: NMR-based metabolomics of urine of DIO mice
Format: in vivo, C57BL/6 mice
Set-up: key to DMA, Mean / DMG, Mean / MA, Mean / TMA, Mean / acetate, Mean / allantoin, Mean / carnitine, Mean / choline, Mean / cis-aconitate, Mean / creatine+creatinine, Mean / creatine, Mean / creatinine, Mean / ethanolamine, Mean / formate, Mean / galactose, Mean / glucose, Mean / glycine, Mean / lactate, Mean / succinate, Mean / vinylacetylglycine, Mean: TSA-normalized intensity of the metabolite's representative NMR signal
Conditions: urine of DIO mice, NMR metabolomics
Description: Urine samples for NMR-based metabolomics were collected prior to the start of the interventions and at the end of the experiment. For overnight urine collection (from 5 pm to 8 am), the mice were housed in individual metabolic cages (Tecniplast, Buguggiate, Italy) without access to food. Samples were collected with the addition of NaN3 and stored at -80°C until NMR analysis.
The urine samples were thawed at room temperature and centrifuged at 13 684 x g for 5 min prior to the NMR experiments. A 200-μl aliquot of supernatant was diluted with 340 μl of H2O mixed with 60 μl of phosphate buffer (1.5 M KH2PO4 in D2O containing 2 mM NaN3 and 0.1% trimethylsilyl propionic acid (TSP), pH 7.4) and transferred to a 5-mm NMR tube. The NMR data were acquired with a 600 MHz Bruker Avance III spectrometer (Bruker BioSpin, Rheinstetten, Germany) equipped with a 5-mm TCI cryogenic probe head. All of the experiments were performed at 300 K. Automatic tuning, matching, shimming and adjusting of the 90° pulse length were performed for each sample.
As mouse urine naturally contains urinary proteins, the NMR spectra were acquired using a Carr-Purcell-Meiboom-Gill (CPMG) pulse sequence with water presaturation (Bruker pulse sequence cpmgpr1d) to eliminate the strong protein background. […] For better metabolite identification, a short J-resolved experiment with presaturation (NS = 2, SW = 16 ppm, TD = 8k, number of increments = 40, SW = 78.125 Hz in the indirect dimension, and relaxation delay = 2 s) was executed for all samples. Additional two-dimensional ^1H-^1H correlation spectroscopy (COSY) and ^1H-^13C heteronuclear multiple-quantum correlation (HMQC) experiments (Bruker pulse sequences cosygpprqf and hmqcphpr) were performed for selected samples.
The acquired data were processed using Topspin 3.2 software (Bruker BioSpin, Rheinstetten, Germany). Line broadening of 0.3 Hz was applied on free induction decays (FIDs) prior to Fourier transformation. The spectra were automatically phased, baseline corrected and referenced to the signal of TSP (0.00 ppm).
The assignment of individual metabolites was achieved by comparing the proton spectra with the spectra of pure metabolites using Chenomx NMR Suite 7.6 (Chenomx Inc., Edmonton, AB, Canada), the HMDB database and previously published metabolomic data. The identification of metabolites was supported through J-resolved and COSY experiments and, if possible, confirmed using carbon chemical shifts extracted from the HMQC spectra.
For quantitation of individual metabolites, the CPMG spectra were uniformly binned in the range of 0.10–10.00 ppm to 0.01-ppm intervals using AMIX software (Bruker BioSpin, Rheinstetten, Germany). This procedure reduced the dimensionality of the data, eliminated chemical shift variations and thus simplified the reproducible automatic quantification. Regions corresponding to water (4.60–4.90 ppm) and urea (5.60–6.00 ppm) were removed prior to analysis. As the dilutions of the original urine samples differed (due to the differences in water intake during urine collection), all of the spectra were normalized to the total spectral area (TSA). For each identified metabolite, one representative signal was chosen and then quantified as the sum of appropriate adjacent 0.01-ppm bins to cover the whole signal width. The metabolite concentration was expressed as the TSA-normalized intensity of the respective signal. For selection of an appropriate statistical method (parametric or non-parametric) the Lilliefors test of normality was performed. […] Metabolite alterations with a P < 0.05 were considered statistically significant. Statistical analysis was performed using Matlab software (“MATLAB version 8.6 (R2015b). Natick, Massachusetts: The MathWorks Inc., 2015.,” n.d.). […]

[1] = difference of analog mean vs saline mean

CCCCCCCCCCCCCCCC(=O)NCCCOCCOCCOCCCNC(=O)CCC(=O)NCCCC[C@H](NC(=O)[C@@H](NC(=O)[C@H](CCC(=O)O)NC(=O)[C@H](CCSC)NC(=O)[C@H](CO)NC(=O)[C@H](Cc1c[nH]cn1)NC(=O)[C@H](CCCNC(=N)N)NC(=O)[C@H](Cc1c[nH]cn1)NC(=O)[C@@H](NC(=O)[C@H](CCCNC(=N)N)NC(=O)[C@H](CO)NC(=O)CCC(=O)NCCCOCCOCCOCCCNC(=O)CCCCCCCCCCCCCCC)[C@@H](C)O)[C@@H](C)CC)C(=O)N[C@H](C(=O)N1CCC[C@H]1C(=O)N[C@@H](CC(=O)O)C(=O)N[C@H](C(=O)N[C@@H](CC(N)=O)C(=O)N1CCC[C@H]1C(=O)N[C@@H](C)C(=O)N[C@@H](Cc1c[nH]c2ccccc12)C(=O)N[C@@H](Cc1ccc(O)cc1)C(=O)N[C@@H](C)C(=O)N[C@@H](CO)C(=O)N[C@@H](CCCNC(=N)N)C(=O)NCC(=O)N[C@H](C(=O)N[C@@H](CCCNC(=N)N)C(=O)N1CCC[C@H]1C(=O)N[C@H](C(=O)NCC(=O)N[C@@H](CCCNC(=N)N)C(=O)N[C@@H](Cc1ccccc1)C(N)=O)C(C)C)[C@@H](C)CC)[C@@H](C)CC)[C@@H](C)O [analog 3] ({TTDA(Palmitoyl)-Suc}-SRTHRHSMEIK([Suc-TTDA(Palmitoyl)])TPDINPAWYASRGIRPVGRF-NH2)
creatine, Saline/analog % [1]: 0.053% | creatinine, Saline/analog % [1]: 0.053% | ethanolamine, Saline/analog % [1]: 0.053% | formate, Saline/analog % [1]: 0.00334% | fumarate, Saline/analog % [1]: -0.141% | galactose, Saline/analog % [1]: -0.254% | glucose, Saline/analog % [1]: -0.116% | glycine, Saline/analog % [1]: -0.035% | hexanoylglycine + acids (0.88 ppm), Saline/analog % [1]: 0.165% | hippurate (7.55 ppm), Saline/analog % [1]: -0.140% | hippurate (7.64 ppm), Saline/analog % [1]: -0.133% | hippurate (7.84 ppm), Saline/analog % [1]: -0.124% | lactate, Saline/analog % [1]: 0.112% | multiplet acids (1.6 ppm), Saline/analog % [1]: 0.172% | putrescin, Saline/analog % [1]: -0.021% | succinate, Saline/analog % [1]: -0.140% | taurine (3.27 ppm), Saline/analog % [1]: -0.063% | taurine (3.43 ppm), Saline/analog % [1]: -0.093% | trigonelline (8.84 ppm), Saline/analog % [1]: -0.159% | trigonelline (9.13 ppm), Saline/analog % [1]: -0.171% | vinylacetylglycine, Saline/analog % [1]: 0.175% | 2-OG (2.45 ppm), Mean (group mean): 11.878 | 2-OG (3.01 ppm), Mean (group mean): 10.469 | 2-PY (8.33 ppm), Mean (group mean): 1.098 | 3-indoxylsulfate (7.51 ppm), Mean (group mean): 1.344 | 3-indoxylsulfate (7.71 ppm), Mean (group mean): 0.810 | 4-PY (7.97 ppm), Mean (group mean): 2.017 | 4-PY (8.55 ppm), Mean (group mean): 0.633 | DMA, Mean (group mean): 5.618 | DMG, Mean (group mean): 1.853 | MA, Mean (group mean): 3.016 | MNA (8.90 ppm), Mean (group mean): 0.487 | MNA (8.97 ppm), Mean (group mean): 0.470 | MNA (9.265 ppm), Mean (group mean): 0.490 | MNA-Nox (7.75 ppm), Mean (group mean): 0.972 | MNA-Nox (8.13 ppm), Mean (group mean): 0.792 | MNA-Nox (8.49 ppm), Mean (group mean): 0.511 | MNA-Nox (8.75 ppm), Mean (group mean): 0.485 | N-carbamoylalanine (2.38 ppm), Mean (group mean): 11.854 | N-carbamoylalanine (3.31 ppm), Mean (group mean): 9.499 | N-isovalerylglycine + oxovalerate (0.92 ppm), Mean (group mean): 16.056 | TMA, Mean (group mean): 11.780 | acetate, Mean (group mean): 3.429 | allantoin, Mean (group mean): 22.447 | carnitine, Mean (group mean): 6.067 | choline, Mean (group mean): 1.970 | cis-aconitate, Mean (group mean): 8.481 | citrate (2.55 ppm), Mean (group mean): 29.434 | citrate (2.69 ppm), Mean (group mean): 26.220 | creatine+creatinine, Mean (group mean): 24.904 | creatine, Mean (group mean): 7.343 | creatinine, Mean (group mean): 11.686 | ethanolamine, Mean (group mean): 8.370 | formate, Mean (group mean): 0.199 | fumarate, Mean (group mean): 0.151 | galactose, Mean (group mean): 0.578 | glucose, Mean (group mean): 3.207 | glycine, Mean (group mean): 5.874 | hexanoylglycine + acids (0.88 ppm), Mean (group mean): 15.361 | hippurate (7.55 ppm), Mean (group mean): 3.987 | hippurate (7.64 ppm), Mean (group mean): 2.057 | hippurate (7.84 ppm), Mean (group mean): 4.311 | lactate, Mean (group mean): 6.853 | multiplet acids (1.6 ppm), Mean (group mean): 12.521 | putrescin, Mean (group mean): 8.726 | succinate, Mean (group mean): 9.267 | taurine (3.27 ppm), Mean (group mean): 24.146 | taurine (3.43 ppm), Mean (group mean): 20.508 | trigonelline (8.84 ppm), Mean (group mean): 0.263 | trigonelline (9.13 ppm), Mean (group mean): 0.106 | vinylacetylglycine, Mean (group mean): 3.527
